The values below come from paper PMC6271202, “1,2-Substituted 4-(1H)-Quinolones: Synthesis, Antimalarial and Antitrypanosomal Activities in Vitro” (Molecules, 2014).

Structures are written as SMILES. Like-named read-outs stand apart in the source and are kept apart here.

Assay [1] has as its system P. falciparum NF54. Kind of assay: Antimalarial assay in vitro (3H-hypoxanthine microculture radioisotope technique). It counts as cell-based, Plasmodium falciparum. The note with it: for IC50: Plasmodium falciparum, read-out: IC50 (µM) NF54; for SI L-6/NF54: selectivity index, quotient of L-6 cytotoxicity IC50 and NF54 IC50. The procedure: (§1) The drug sensitive strain of P. falciparum (NF54) was obtained from Schipol Airport, The Netherlands. […] L-6 cells were derived from rat skeletal myoblasts.
Antimalarial activity in vitro was determined by means of the microculture radioisotope technique which makes use of ^3H-hypoxanthine as an indicator of parasite viability. In this assay the drug sensitive NF54 strain was employed. Parasite cultures supplemented with HEPES (5.94 g/L), NaHCO3 (2.1 g/L), neomycin (100 U/mL), Albumax® (5 g/L) and washed human red cells A^+ at 2.5% haematocrit (0.3% parasitaemia) were incubated in RPMI 1640 medium without hypoxanthine and placed in the 96-well plates. Solutions of 4-(1H)-quinolone derivatives and the positive control chloroquine were dissolved in DMSO at 10 mg/mL and added to the first well followed by serial dilution to afford test concentrations ranging from 100 to 0.002 mg/L. After 48 h incubation at 37 °C, 4% CO2, 3% O2, 93% N2, ^3H-hypoxyanthine was added (0.5 µC/well) and then the plates were incubated further for 24 h under the same condition. The plates were freeze/thawed rapidly, harvested on glass fibre filters and dried. Radioactive hypoxanthine uptake was measured by scintillation counter. IC50 values were calculated from sigmoidal inhibition curves by linear regression using Microsoft Excel. Assays were carried out two times in triplicate.

For assay [2], the system named is T. b. rhodesiense STIB 900 strain. The assay is described as follows: Antitrypanosomal assay in vitro (Alamar Blue). The note with it: for IC50: Trypanosoma brucei, read-out: IC50 (µM) STIB900; for SI L-6/STIB900: selectivity index, quotient of cytotoxicity and antitrypanosomal IC50 values. It counts as cell-based, Trypanosoma brucei rhodesiense. The procedure:
as §1
In vitro antitrypanosomal assay was carried out against the bloodstream form of T. b. rhodesiense STIB 900 strain using the Alamar Blue assay. The STIB 900 strain was suspended in fresh medium containing 1% MEM powder medium, MEM non-essential amino acids (100x) supplemented with 25 mM HEPES, additional glucose (1 g/L), 0.2 mM 2-mercaptoethanol, 1.0 mM sodium pyruvate and 15% heat inactivated horse serum. 50 µL (4 × 10^3 trypanosomes/mL) of this suspension was seeded in each well of the 96-well microtiter plate which contained test compounds and the positive control melarsoprol which were dissolved in DMSO and serially diluted to concentrations ranging from […]. The plates were incubated at 37 °C under 5% CO2 atmosphere for 70 h. Alamar Blue solution (10 µL) was added and incubation was continued for further 2–4 h. Plates were read with a Spectramax Gemini XS (Molecular Devices Cooperation, Sunnyvale, CA, USA) at EX/EM (536/588 nm). The IC50 values were calculated by linear regression from the sigmoidal dose inhibition curves using SoftmaxPro software. Tests were carried out two times in triplicate.

In assay [3] the test system is rat skeletal muscle cell (L-6). The assay is described as follows: Cytotoxicity assay (Alamar Blue). The class given is cell-based. As to conditions: Myoblast, read-out: IC50 (µM) L-6. As for the experimental part: as §1
96-well plates were seeded with 100 µL of RPMI 1640 medium supplemented with 1% L-glutamine and 10% fetal bovine serum, and rat skeletal muscle cell (L-6) (4 × 10^3/mL). The 4-(1H)-quinolone derivatives and the positive control podophyllotoxin were dissolved in DMSO and with a serial dilution ranging from […] were added into the wells in triplicate. The plates were incubated for 70 h and assessed microscopically for cell growth. Alamar Blue solution (10 µL) was then added to each well and incubation continued for 2 h before reading with a Spectramax Gemini XS at EX/EM 536/588. The IC50 values were calculated by linear regression from the sigmoidal dose inhibition curves using SoftmaxPro software. Tests were carried out two times in triplicate.

Setting [4] is: chloroquine sensitive strain P. falciparum NF54, 72 h total incubation.
[5] abbreviates: bloodstream form T. b. rhodesiense STIB 900, 70 h incubation.
[6] abbreviates: L-6 rat skeletal myoblasts, 70 h incubation.

Take `CN1CCN(CCCCCCCCC/C=C/c2cc(=O)c3ccccc3n2C)CC1` [Compound 20, 1-Methyl-2-[(1′E)-11′(N-methylpiperazinyl)undecenyl]-4-(1H)-quinolone]: the results for the IC50 in assay [1] (setting [4]), in assay [2] (setting [5]) and in assay [3] (setting [6]) were 1.35 µM, 4.94 µM and 32.5 µM, respectively. Besides, the “SI L-6/NF54” value in assay [1] is 24.14. Further, in assay [2], the “SI L-6/STIB900” value is on record as 6.59.
`Nc1nc(N)nc(Nc2ccc([As]3SCC(CO)S3)cc2)n1` (stereo not drawn) [Melarsoprol, reference compound]: the IC50 in assay [2] (70 h) was 0.0075 µM.
`COc1cc([C@@H]2c3cc4c(cc3[C@H](O)[C@H]3COC(=O)[C@H]23)OCO4)cc(OC)c1OC` [Podophyllotoxin, reference compound]: the IC50 in assay [3] (Rattus norvegicus, 70 h) is 0.017 µM.
As for `CC1=C(/C=C/c2cc(=O)c3ccccc3n2CCBr)C(C)(C)CCC1` [Compound 21, 1-(2-Bromoethyl)-2-[(1′E)-2′-(2′′,6′′,6′′-trimethyl-1′′-cyclohexen-1′′-yl)ethenyl]-4-(1H)-quinol-one], the IC50 in assay [1] (setting [4]) amounted to 1.99 µM; in assay [2] (setting [5]), 8.85 µM; in assay [3] (setting [6]) it was 33.2 µM. In addition, in assay [1], the “SI L-6/NF54” value is reported as 16.65. Further, in assay [2], the “SI L-6/STIB900” value was 3.76.
As for `CCCCCCCCCCCC/C=C/c1cc(=O)c2ccccc2n1CCC` [Compound 18f], the IC50 amounted to 1.19 µM in assay [1] (setting [4]), 19.1 µM in assay [2] (setting [5]) and 13 µM in assay [3] (setting [6]). For the same molecule, in assay [1], the “SI L-6/NF54” value worked out at 10.99. Further, the “SI L-6/STIB900” value in assay [2] stood at 0.68.
For the molecule `CCCOc1ccc(/C=C/c2cc(=O)c3ccccc3n2CCBr)cc1` [Compound 10a, 1-(2-Bromoethyl)-2-[(1′E)-(4′′-propoxyphenyl)ethenyl]-4-(1H)-quinolone], the values for the half-inhibitory concentration (IC50) in assay [1] (setting [4]), in assay [2] (setting [5]) and in assay [3] (setting [6]) were 1.58 µM, 1.25 µM and 25.8 µM, respectively. Moreover, the “SI L-6/NF54” value in assay [1] is 16.45.
Consider `CCCCCOc1ccc(/C=C/c2cc(=O)c3ccccc3n2CCBr)cc1` [Compound 11], for which the IC50 was found to be 1.56 µM in assay [1] (setting [4]), 3.82 µM in assay [2] (setting [5]) and 42.4 µM in assay [3] (setting [6]). Moreover, the “SI L-6/NF54” value in assay [1] turned out to be 27.11. For the same molecule, in assay [2], the “SI L-6/STIB900” value came out at 11.10.
Regarding `CCCOc1ccc(/C=C/c2cc(=O)c3cc(Cl)ccc3n2C)cc1` [Compound 10b, 6-Chloro-1-methyl-2-[(1′E)-(4′′-propoxyphenyl)ethenyl]-4-(1H)-quinolone], the IC50 in assay [1] (setting [4]) was 0.47 µM; in assay [2] (setting [5]), 21.9 µM; in assay [3] (setting [6]) it was 161 µM. Besides, the “SI L-6/NF54” value in assay [1] came out at 342.89. For the same molecule, the “SI L-6/STIB900” value in assay [2] worked out at 7.36.
For `C=CCn1c(/C=C/CCCCCCCCCCCC)cc(=O)c2ccccc21` [Compound 18e] the same measures were 0.31 µM, 8.18 µM, 14 µM, 45.78 and 1.71.
Consider `CCCCCCCCCC=CCCCCc1cc(=O)c2ccccc2n1C` [Compound 29], for which the IC50 in assay [1] (setting [4]) was determined as 0.39 µM; in assay [2] (setting [5]), 10.8 µM; in assay [3] (setting [6]) it was 13.2 µM. In assay [1], the “SI L-6/NF54” value came to 33.84.
In the case of `Cn1c(-c2ccc(CCCCCCBr)cc2)cc(=O)c2ccccc21` [Compound 5a, 1-Methyl-2-[4′-(6′′-bromohexyl)phenyl]-4(1H)-quinolone], the IC50 in assay [1] (setting [4]) was 0.09 µM; in assay [2] (setting [5]), 1.64 µM; in assay [3] (setting [6]), 6.63 µM. Also, the “SI L-6/STIB900” value in assay [2] is listed as 4.04.
Turning to `Cn1c(-c2ccc(CCCCCCCCCCN3CCCCC3)cc2)cc(=O)c2ccccc21` [Compound 5b, 1-Methyl-2-[4′-(10′′-piperidinyldecyl)phenyl]-4-(1H)-quinolone], the IC50 in assay [1] (setting [4]) worked out at 0.82 µM; in assay [2] (setting [5]) it was 3.41 µM; in assay [3] (setting [6]), 9.63 µM. In addition, the “SI L-6/NF54” value in assay [1] is listed as 11.73. Besides, in assay [2], the “SI L-6/STIB900” value worked out at 2.83.
For `CCCCCCCCCCCCCCCc1cc(=O)c2ccccc2n1C` [Compound 30], the results for the IC50 in assay [1] (setting [4]), in assay [2] (setting [5]) and in assay [3] (setting [6]) were 6.4 µM, 42.4 µM and 101 µM, respectively. In addition, the “loss in potency compared to 29” value in assay [1] (antimalarial potency, P. falciparum NF54, hydrogenation of the alkenyl chain of 29) is 16 fold. Moreover, the “SI L-6/NF54” value in assay [1] was 15.91. Besides, the “SI L-6/STIB900” value in assay [2] stood at 2.39.
`CCCCCCCCCC/C=C/c1cc(=O)c2ccccc2n1CCBr` [Compound 18b]: the figures for the IC50 in assay [1] (setting [4]), in assay [2] (setting [5]) and in assay [3] (setting [6]) were 2.3 µM, 8.28 µM and 38.4 µM, respectively. The “SI L-6/NF54” value in assay [1] was 16.69. In addition, in assay [2], the “SI L-6/STIB900” value came out at 4.63.
Turning to `CCCCCCCCCCC#CCCc1cc(=O)c2ccccc2n1CC` [Compound 36b], the figures for the IC50 in assay [1] (setting [4]), in assay [2] (setting [5]) and in assay [3] (setting [6]) were 0.45 µM, 16.6 µM and 13.6 µM, respectively. For the same molecule, the “SI L-6/NF54” value in assay [1] was 29.82. The “SI L-6/STIB900” value in assay [2] was 0.82.
The like results for `CCCCCC/C=C\CCc1cc(=O)c2ccccc2n1C` [Compound 28] were, in that order, 15.3 µM, 11 µM, 49.5 µM, 3.22 and 4.48.
For `C#CCn1c(/C=C/CCCCCCCCCCCC)cc(=O)c2ccccc21` [Compound 18d] the same measures were 4.64 µM, 24.5 µM, 24.7 µM, 5.32 and 1.01.
Regarding `CCN(CC)CCCC(C)Nc1ccnc2cc(Cl)ccc12` (stereo not drawn) [Chloroquine, reference compound], the IC50 in assay [1] (NF54, 72 h) was 0.0063 µM.
Take `Cn1c(CCCCC=C2CCCCCC2)cc(=O)c2ccccc21` [Compound 31]: the IC50 in assay [1] (setting [4]) was determined as 10.1 µM; in assay [2] (setting [5]), 14.4 µM; in assay [3] (setting [6]) it was 45.8 µM. Also, the “SI L-6/NF54” value in assay [1] was found to be 4.52. Moreover, the “SI L-6/STIB900” value in assay [2] was 3.19.
Regarding `Cn1c(/C=C/CCCCCCCCCBr)cc(=O)c2ccccc21` [Compound 19], the IC50 worked out at 0.69 µM in assay [1] (setting [4]), 1.07 µM in assay [2] (setting [5]) and 36.3 µM in assay [3] (setting [6]). The “SI L-6/NF54” value in assay [1] came to 52.64.
As to `CCCCCCCCCCCCC#Cc1cc(=O)c2ccccc2n1C` [Compound 35], the IC50 in assay [1] (setting [4]) was 0.84 µM; in assay [2] (setting [5]), 10.5 µM; in assay [3] (setting [6]), 15.8 µM. The “SI L-6/NF54” value in assay [1] worked out at 18.78. In addition, the “SI L-6/STIB900” value in assay [2] worked out at 1.50.
As for `CCCCCCCCCCC#CCCc1cc(=O)c2ccccc2n1C` [Compound 36a], the IC50 in assay [1] (setting [4]) turned out to be 3.11 µM; in assay [2] (setting [5]) it was 33.5 µM; in assay [3] (setting [6]) it was 13.3 µM. The “SI L-6/NF54” value in assay [1] is on record as 4.29. Moreover, in assay [2], the “SI L-6/STIB900” value amounted to 0.39.
As to `CCCCCCCCC/C=C/c1cc(=O)c2ccccc2n1C` [Compound 18a], the IC50 in assay [1] (setting [4]) was found to be 12.4 µM; in assay [2] (setting [5]) it was 52.2 µM; in assay [3] (setting [6]) it was 44.7 µM. Further, the “SI L-6/NF54” value in assay [1] came out at 3.61. Also, the “SI L-6/STIB900” value in assay [2] is given as 0.86.
In the case of `CCCCCCCCCCCC/C=C/c1cc(=O)c2ccccc2n1CCCC` [Compound 18g], the IC50 in assay [1] (setting [4]) amounted to 2.29 µM; in assay [2] (setting [5]) it was 18.7 µM; in assay [3] (setting [6]) it was 13.3 µM. Further, the “SI L-6/NF54” value in assay [1] was 5.79. Also, the “SI L-6/STIB900” value in assay [2] was found to be 0.70.

As a reminder, the IC50 is the concentration that inhibits the measured activity by half.
